The values below come from the RepoRT retention time repository.

A short description of the data set: Waters ACQUITY UPLC BEH Shield RP18, 100 × 2.1 mm, 1.7 µm, 40 °C, 0.4 mL/min, estimated dead time 0.55 min; A: water + 0.1% formic acid; B: acetonitrile; gradient (min/%B) 0/2 10/18 15/28 22/40 32/67. As to conditions: stereoisomer not certain.

With `COc1c(CC=C(C)C)c(O)cc2c1CC(c1ccc(O)c(CC=C(C)C)c1O)CO2` (configuration not stated), the LC retention time was 28.7 min.

Regarding `O=c1cc(-c2ccc(O)cc2)oc2c(C3OCC(O)C(O)C3O)c(O)c(C3OC(CO)C(O)C(O)C3O)c(O)c12` (configuration not stated), the LC retention time was 8.56 min.

On to `O=C(C=Cc1ccc(OC2OC(CO)C(O)C(O)C2O)cc1)c1ccc(O)cc1O` (configuration not stated), for which the LC retention time is 14.3 min.

As to `O=C(C=Cc1ccc(OC2OC(CO)C(O)C(O)C2OC2OCC(O)(CO)C2O)cc1)c1ccc(O)cc1O` (configuration not stated), the LC retention time is 14 min.

On to `O=C1CC(c2ccc(OC3OC(CO)C(O)C(O)C3O)cc2)Oc2cc(OC3OC(CO)C(O)C(O)C3O)ccc21` (configuration not stated), for which the LC retention time was 6.01 min.

In the case of `CC1(C(=O)O)CCC2(C)CCC3(C)C(=CC(=O)C4C5(C)CCC(OC6OC(C(=O)O)C(O)C(O)C6OC6OC(C(=O)O)C(O)C(O)C6O)C(C)(CO)C5CCC43C)C2C1` (configuration not stated), the LC retention time is 20.7 min.

For the molecule `COc1ccc(-c2coc3cc(O)ccc3c2=O)cc1O`, the LC retention time was 15.1 min.

Regarding `CC12CC(OC1=O)C1(C)CCC3(C)C(=CC(=O)C4C5(C)CCC(OC6OC(C(=O)O)C(O)C(O)C6OC6OC(C(=O)O)C(O)C(O)C6O)C(C)(C)C5CCC43C)C1C2` (configuration not stated), the LC retention time was 19.8 min.

With `O=C(C=Cc1ccc(O)cc1)c1ccc(OC2OC(CO)C(O)C(O)C2O)cc1O` (configuration not stated), the LC retention time was 14.5 min.

On to `CC(C)=CCc1cc(-c2oc3cc(O)cc(O)c3c(=O)c2O)ccc1O`, for which the LC retention time was 26.1 min.

On to `COc1ccc(-c2coc3cc(OC4OC(CO)C(O)C(O)C4OC4OCC(O)(CO)C4O)ccc3c2=O)cc1` (configuration not stated), for which the LC retention time is 12.2 min.

`CC(C)=CCc1c(O)cc2oc(-c3ccc(O)cc3)c(O)c(=O)c2c1O`: the LC retention time is 28.1 min.

Turning to `CC1(C)C=Cc2c(ccc(-c3coc4cc(O)cc(O)c4c3=O)c2O)O1`, the LC retention time is 26.9 min.

In the case of `CC1(CO)CC(O)C2(C)CCC3(C)C(=CC(=O)C4C5(C)CCC(OC6OC(C(=O)O)C(O)C(O)C6OC6OC(C(=O)O)C(O)C(O)C6O)C(C)(C)C5CCC43C)C2C1` (configuration not stated), the LC retention time is 16.8 min.

With `COc1cc(O)c2c(=O)c(OC)c(-c3ccc(O)cc3)oc2c1`, the LC retention time was 15.1 min.

For `COc1c(CC=C(C)C)c(O)cc2oc(=O)c3c4ccc(O)cc4oc3c12`, the LC retention time was 27.2 min.

For the molecule `CC1(C(=O)O)CCC2(C)CCC3(C)C(=C2C1)C=CC1C2(C)CCC(OC4OC(C(=O)O)C(O)C(O)C4OC4OC(C(=O)O)C(O)C(O)C4O)C(C)(CO)C2CCC13C` (configuration not stated), the LC retention time was 22.3 min.

For the molecule `O=C1CC(c2ccc(OC3OC(CO)C(O)C(O)C3O)cc2)Oc2cc(O)ccc21` (configuration not stated), the LC retention time was 9.89 min.

In the case of `CC1(C(=O)OC2OC(CO)C(O)C(O)C2O)CCC2(C)CCC3(C)C(=CC(=O)C4C5(C)CCC(OC6OC(C(=O)O)C(O)C(O)C6OC6OC(C(=O)O)C(O)C(O)C6O)C(C)(C)C5CCC43C)C2C1` (configuration not stated), the LC retention time is 17.4 min.

Consider `O=C1CC(c2ccc(OC3OC(CO)C(O)C(O)C3OC3OCC(O)(CO)C3O)cc2)Oc2cc(O)ccc21` (configuration not stated), for which the LC retention time was 10.2 min.

Turning to `O=C(O)CC(C(=O)O)c1ccc(O)cc1` (configuration not stated), the LC retention time is 4.34 min.

For `COc1cc2oc(-c3ccc(O)c(CC=C(C)C)c3)c(O)c2cc1OC`, the LC retention time was 24.8 min.

On to `O=C1CC(c2ccc(O)cc2)Oc2cc(OC3OC(CO)C(O)C(O)C3O)ccc21` (configuration not stated), for which the LC retention time is 9.18 min.

With `COc1cc(O)cc2oc(=O)c(-c3ccc(O)cc3O)cc12`, the LC retention time is 19.9 min.

Regarding `O=C1CC(c2ccc(O)cc2)Oc2cc(O)ccc21` (configuration not stated), the LC retention time is 14.6 min.

Regarding `COc1ccc(-c2coc3cc(OC4OC(CO)C(O)C(O)C4O)ccc3c2=O)cc1` (configuration not stated), the LC retention time was 12.3 min.

Take `CC(C)=CCc1cc(-c2cc(=O)c3c(O)cc(O)cc3o2)cc(O)c1O`: the LC retention time is 24.9 min.

Take `COc1cc(O)c(-c2coc3cc(O)ccc3c2=O)c(OC)c1CC=C(C)C`: the LC retention time was 24.1 min.

Regarding `C=CC(C)(C)c1cc(C=CC(=O)c2ccc(O)cc2)c(OC)cc1O`, the LC retention time is 26.3 min.

Regarding `CC1(C(=O)O)CCC2(C)CCC3(C)C(=CC(=O)C4C5(C)CCC(O)C(C)(C)C5CCC43C)C2C1` (configuration not stated), the LC retention time was 29.2 min.

Turning to `COc1ccc(-c2coc3cc(O)ccc3c2=O)cc1`, the LC retention time was 19 min.

As for `CC(=O)OC1CC(C)(C(=O)O)CC2C3=CC(=O)C4C5(C)CCC(OC6OC(C(=O)O)C(O)C(O)C6OC6OC(C(=O)O)C(O)C(O)C6O)C(C)(CO)C5CCC4(C)C3(C)CCC12C` (configuration not stated), the LC retention time is 17.8 min.
